Values of other authors in US20170202932A1, “METHODS FOR INHIBITING NEURON APOPTOSIS AND NECROSIS” (NEWSOUTH INNOVATIONS PTY LIMITED, priority 2012, published 2017).

How the values were obtained:
TRPC3 = target: T1, TRPC3 (Homo sapiens, UniProt Q13507); details: cited from earlier work
T1 sequence (Q13507 1-921): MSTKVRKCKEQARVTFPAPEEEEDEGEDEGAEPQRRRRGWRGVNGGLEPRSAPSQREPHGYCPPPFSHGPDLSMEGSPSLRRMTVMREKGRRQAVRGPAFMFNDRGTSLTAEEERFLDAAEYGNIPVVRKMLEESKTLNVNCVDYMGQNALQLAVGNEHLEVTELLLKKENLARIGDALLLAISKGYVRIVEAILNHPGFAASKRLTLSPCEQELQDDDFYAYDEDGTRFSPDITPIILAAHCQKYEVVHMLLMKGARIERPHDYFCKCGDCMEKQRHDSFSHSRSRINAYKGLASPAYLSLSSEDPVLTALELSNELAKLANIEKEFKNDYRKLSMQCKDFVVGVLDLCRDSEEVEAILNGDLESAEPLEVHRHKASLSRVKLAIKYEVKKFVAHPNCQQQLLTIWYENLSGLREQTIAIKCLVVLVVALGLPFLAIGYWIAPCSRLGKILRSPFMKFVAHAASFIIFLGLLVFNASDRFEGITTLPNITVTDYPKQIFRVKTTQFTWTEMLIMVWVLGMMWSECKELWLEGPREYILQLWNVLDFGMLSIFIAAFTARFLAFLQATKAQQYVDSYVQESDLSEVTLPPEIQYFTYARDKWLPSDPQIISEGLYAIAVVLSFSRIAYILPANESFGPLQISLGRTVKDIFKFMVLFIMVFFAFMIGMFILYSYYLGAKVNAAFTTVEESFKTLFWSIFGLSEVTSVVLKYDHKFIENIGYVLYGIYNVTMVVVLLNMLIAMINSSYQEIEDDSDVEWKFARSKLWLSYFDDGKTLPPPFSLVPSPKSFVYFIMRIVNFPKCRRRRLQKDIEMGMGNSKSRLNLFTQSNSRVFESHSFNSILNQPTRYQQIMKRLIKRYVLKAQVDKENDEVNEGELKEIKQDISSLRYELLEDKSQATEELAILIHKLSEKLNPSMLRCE

other TRPC channels = details: cited from earlier work

CCOC(=O)c1cnn(-c2ccc(NC(=O)C(Cl)=C(Cl)Cl)cc2)c1C(F)(F)F [Pyr3, ethyl-1-(4-(2,3,3-trichloroacrylamide)phenyl)-5-(trifluoromethyl)-1H-pyrazole-4-carboxylate]
inhibition of TRPC3-mediated Ca2+ influx (TRPC3): selectively inhibit
effect on other TRPC channels (other TRPC channels): no effect
